Data: article PMC5218480 (PLoS ONE, 2017)

Test system: MV-4-11 cells
Experiment: Gene expression microarray analysis (Affymetrix PrimeView) and GSEA
Format: cell-based, human
Design: RFU PODN (11730768_x_at) / Fold change /veh PODN (11730768_x_at) / RFU LINC00158 (11744669_a_at) / Fold change /veh LINC00158 (11744669_a_at) / RFU DUSP10 (11751237_a_at) / Fold change /veh DUSP10 (11751237_a_at) / RFU ID3 (11757404_x_at) / Fold change /veh ID3 (11757404_x_at) / RFU PLEKHG5 (11737974_s_at) / Fold change /veh PLEKHG5 (11737974_s_at) / RFU LRRC4B (11730491_at) / Fold change /veh LRRC4B (11730491_at) / RFU GIMAP4 (11747438_a_at) / Fold change /veh GIMAP4 (11747438_a_at) / RFU KRT8 (11758183_x_at) / Fold change /veh KRT8 (11758183_x_at) / RFU CNN1 (11734310_a_at) / Fold change /veh CNN1 (11734310_a_at) / RFU VPS37D (11726825_at) / Fold change /veh VPS37D (11726825_at) / RFU C10orf10 (11716522_x_at) / Fold change /veh C10orf10 (11716522_x_at) / RFU KIR2DL2 /// KIR2DL4 /// KIR2DL5A /// KIR2DL5B /// KIR2DS1 /// KIR2DS2 /// KIR2DS3 /// KIR2DS4 /// KIR3DL3 /// KIR3DL3 /// KIR3DS1 (11738374_at) / Fold change /veh KIR2DL2 /// KIR2DL4 /// KIR2DL5A /// KIR2DL5B /// KIR2DS1 /// KIR2DS2 /// KIR2DS3 /// KIR2DS4 /// KIR3DL3 /// KIR3DL3 /// KIR3DS1 (11738374_at) / RFU C1QL1 (11718748_at) / Fold change /veh C1QL1 (11718748_at) / RFU TMPRSS4 (11747572_a_at) / Fold change /veh TMPRSS4 (11747572_a_at) / RFU HAMP (11756126_x_at) / Fold change /veh HAMP (11756126_x_at) / RFU RNFT2 (11725882_a_at) / Fold change /veh RNFT2 (11725882_a_at) / RFU NR4A2 (11747474_a_at) / Fold change /veh NR4A2 (11747474_a_at) / RFU ABCC12 (11746883_a_at) / Fold change /veh ABCC12 (11746883_a_at) / RFU TMEM136 (11760407_x_at) / Fold change /veh TMEM136 (11760407_x_at) / RFU CLDN22 /// WWC2 (11732394_at) / Fold change /veh CLDN22 /// WWC2 (11732394_at) / RFU HLA-DPB1 (11760878_x_at) / Fold change /veh HLA-DPB1 (11760878_x_at) / RFU SPINT1 (11716480_a_at) / Fold change /veh SPINT1 (11716480_a_at) / RFU GAP43 (11754022_s_at) / Fold change /veh GAP43 (11754022_s_at) / RFU A4GNT (11735810_at) / Fold change /veh A4GNT (11735810_at) / RFU PRB3 (11715151_x_at) / Fold change /veh PRB3 (11715151_x_at) / RFU TUBB4B (11761932_at) / Fold change /veh TUBB4B (11761932_at) / RFU CAPN14 (11732068_a_at) / Fold change /veh CAPN14 (11732068_a_at) / RFU TMCC2 (11721928_a_at) / Fold change /veh TMCC2 (11721928_a_at) / RFU IRGQ (11745062_a_at) / Fold change /veh IRGQ (11745062_a_at) / RFU FAM174B (11720279_a_at) / Fold change /veh FAM174B (11720279_a_at) / RFU TMPRSS4 (11748680_a_at) / Fold change /veh TMPRSS4 (11748680_a_at) / RFU FAM212B (11763350_a_at) / Fold change /veh FAM212B (11763350_a_at) / RFU PLEKHG5 (11743358_a_at) / Fold change /veh PLEKHG5 (11743358_a_at) / RFU ZSCAN30 (11745921_a_at) / Fold change /veh ZSCAN30 (11745921_a_at) / RFU CMKLR1 (11741424_a_at) / Fold change /veh CMKLR1 (11741424_a_at) / RFU LOC101060620 /// MAPK8IP1 (11723275_at) / Fold change /veh LOC101060620 /// MAPK8IP1 (11723275_at) / RFU SPTSSB (11747773_x_at) / Fold change /veh SPTSSB (11747773_x_at) / RFU PRSS12 (11739890_at) / Fold change /veh PRSS12 (11739890_at) / RFU BIN1 (11741810_x_at) / Fold change /veh BIN1 (11741810_x_at) / RFU WNT11 (11732464_a_at) / Fold change /veh WNT11 (11732464_a_at) / RFU C10orf10 (11716521_a_at) / Fold change /veh C10orf10 (11716521_a_at) / RFU C5orf56 (11738089_at) / Fold change /veh C5orf56 (11738089_at) / RFU CYB561 (11721691_x_at) / Fold change /veh CYB561 (11721691_x_at) / RFU ANKRD19P (11752326_a_at) / Fold change /veh ANKRD19P (11752326_a_at) / RFU OR2T12 /// OR2T33 /// OR2T8 (11738714_s_at) / Fold change /veh OR2T12 /// OR2T33 /// OR2T8 (11738714_s_at) / RFU VCAN (11748164_a_at) / Fold change /veh VCAN (11748164_a_at) / RFU JSRP1 (11732532_at) / Fold change /veh JSRP1 (11732532_at) / RFU KRTAP10-11 (11738290_x_at) / Fold change /veh KRTAP10-11 (11738290_x_at) / RFU MYO3A (11730013_a_at) / Fold change /veh MYO3A (11730013_a_at) / RFU EBF3 (11725865_a_at) / Fold change /veh EBF3 (11725865_a_at) / RFU CAMK2N1 (11719241_x_at) / Fold change /veh CAMK2N1 (11719241_x_at) / RFU C5orf56 (11738088_a_at) / Fold change /veh C5orf56 (11738088_a_at) / RFU OLFML3 (11715873_a_at) / Fold change /veh OLFML3 (11715873_a_at) / RFU LOC100653217 /// NTM (11731650_a_at) / Fold change /veh LOC100653217 /// NTM (11731650_a_at) / RFU MAPK11 (11762145_a_at) / Fold change /veh MAPK11 (11762145_a_at) / RFU FIZ1 (11724087_x_at) / Fold change /veh FIZ1 (11724087_x_at) / RFU OASL (11726364_x_at) / Fold change /veh OASL (11726364_x_at) / RFU SOX15 (11748057_x_at) / Fold change /veh SOX15 (11748057_x_at) / RFU CD79A (11719716_a_at) / Fold change /veh CD79A (11719716_a_at) / RFU HIST1H1D (11736915_at) / Fold change /veh HIST1H1D (11736915_at) / RFU CASKIN2 (11723855_a_at) / Fold change /veh CASKIN2 (11723855_a_at) / RFU LOC730098 (11760151_x_at) / Fold change /veh LOC730098 (11760151_x_at) / RFU OR4N2 (11742367_at) / Fold change /veh OR4N2 (11742367_at) / RFU PRRT2 (11749266_a_at) / Fold change /veh PRRT2 (11749266_a_at) / RFU SNX32 (11753110_a_at) / Fold change /veh SNX32 (11753110_a_at) / RFU CDHR5 (11726645_a_at) / Fold change /veh CDHR5 (11726645_a_at) / RFU RCAN1 (11760418_a_at) / Fold change /veh RCAN1 (11760418_a_at) / RFU FAM167A (11723789_a_at) / Fold change /veh FAM167A (11723789_a_at) / RFU FAM26E (11764081_at) / Fold change /veh FAM26E (11764081_at) / RFU ISYNA1 (11749810_s_at) / Fold change /veh ISYNA1 (11749810_s_at) / RFU ACY1 (11761880_at) / Fold change /veh ACY1 (11761880_at) / RFU 11764098_at / Fold change /veh 11764098_at / RFU SAMD14 (11745864_x_at) / Fold change /veh SAMD14 (11745864_x_at) / RFU NPB (11741838_a_at) / Fold change /veh NPB (11741838_a_at) / RFU TMPRSS6 (11731388_a_at) / Fold change /veh TMPRSS6 (11731388_a_at) / RFU KRTAP10-2 (11738614_at) / Fold change /veh KRTAP10-2 (11738614_at) / RFU ARHGAP8 /// PRR5-ARHGAP8 (11727945_x_at) / Fold change /veh ARHGAP8 /// PRR5-ARHGAP8 (11727945_x_at) / RFU KRTAP5-7 /// NADSYN1 (11734609_at) / Fold change /veh KRTAP5-7 /// NADSYN1 (11734609_at) / RFU RASL12 (11751679_a_at) / Fold change /veh RASL12 (11751679_a_at) / RFU CDKN2B (11736163_a_at) / Fold change /veh CDKN2B (11736163_a_at) / RFU PRF1 (11729649_at) / Fold change /veh PRF1 (11729649_at) / RFU, ZNF638 /// ZNF638-IT1 / Fold change vs veh, ZNF638 /// ZNF638-IT1 / RFU, PANK3 / Fold change vs veh, PANK3 / RFU, SH3YL1 / Fold change vs veh, SH3YL1 / RFU, ZEB2 / Fold change vs veh, ZEB2 / RFU, NRIP1 / Fold change vs veh, NRIP1 / RFU, PTTG1IP / Fold change vs veh, PTTG1IP / RFU, CAPN2 / Fold change vs veh, CAPN2 / RFU, MED14 / Fold change vs veh, MED14 / RFU, SNORA58 / Fold change vs veh, SNORA58 / RFU, C1orf63 / Fold change vs veh, C1orf63 / RFU, LRRFIP1 / Fold change vs veh, LRRFIP1 / RFU, NDUFAF7 / Fold change vs veh, NDUFAF7 / RFU, SLC12A2 / Fold change vs veh, SLC12A2 / RFU, IBTK / Fold change vs veh, IBTK / RFU, ESF1 / Fold change vs veh, ESF1 / Fold change vs veh, TMEM50B / RFU, TAOK1 / Fold change vs veh, TAOK1 / RFU, ACBD3 / Fold change vs veh, ACBD3 / RFU, TMA16 / Fold change vs veh, TMA16 / RFU, RWDD3 / Fold change vs veh, RWDD3 / RFU, BCAT1 / Fold change vs veh, BCAT1 / RFU, EDEM3 / Fold change vs veh, EDEM3 / RFU, TMEM33 / Fold change vs veh, TMEM33 / RFU, WDR75 / Fold change vs veh, WDR75 / RFU, AHCTF1 / Fold change vs veh, AHCTF1 / RFU, TFRC / Fold change vs veh, TFRC / RFU, ZDHHC17 / Fold change vs veh, ZDHHC17 / RFU, NOM1 / Fold change vs veh, NOM1 / RFU, ARL8B / Fold change vs veh, ARL8B / RFU, ZBTB11 / Fold change vs veh, ZBTB11 / RFU, TAMM41 / Fold change vs veh, TAMM41 / RFU, KIAA1704 /// LOC100996395 / Fold change vs veh, KIAA1704 /// LOC100996395 / RFU, ING1 / Fold change vs veh, ING1 / RFU, TRMT61B / Fold change vs veh, TRMT61B / RFU, FUBP3 / Fold change vs veh, FUBP3 / RFU, TP53 / Fold change vs veh, TP53 / RFU, TNKS2 / Fold change vs veh, TNKS2 / RFU, ZFP14 / Fold change vs veh, ZFP14 / RFU, ACTR2 / Fold change vs veh, ACTR2 / RFU, PPP3R1 / Fold change vs veh, PPP3R1 / RFU, PIK3R1 / Fold change vs veh, PIK3R1 / RFU, HNRNPA1 / Fold change vs veh, HNRNPA1 / RFU, RNF170 / Fold change vs veh, RNF170 / RFU, ZNF28 / Fold change vs veh, ZNF28 / RFU, RNGTT / Fold change vs veh, RNGTT / RFU, OGT / Fold change vs veh, OGT / RFU, BRD1 / Fold change vs veh, BRD1 / RFU, MARS / Fold change vs veh, MARS / RFU, ZNF655 / Fold change vs veh, ZNF655 / RFU, FAHD1 / Fold change vs veh, FAHD1 / RFU, BDP1 / Fold change vs veh, BDP1 / RFU, LRRCC1 / Fold change vs veh, LRRCC1 / RFU, ARID1A / Fold change vs veh, ARID1A / RFU, ZNF146 / Fold change vs veh, ZNF146 / RFU, ZNF330 / Fold change vs veh, ZNF330 / RFU, GPN3 / Fold change vs veh, GPN3 / RFU, C9orf123 / Fold change vs veh, C9orf123 / RFU, N4BP2L2 / Fold change vs veh, N4BP2L2 / RFU, ARFIP1 / Fold change vs veh, ARFIP1 / RFU, FAM179B / Fold change vs veh, FAM179B / RFU, BCL10 / Fold change vs veh, BCL10 / RFU, UHRF1BP1L / Fold change vs veh, UHRF1BP1L / RFU, BET1 / Fold change vs veh, BET1 / RFU, CNOT2 / Fold change vs veh, CNOT2 / RFU, ZNF268 / Fold change vs veh, ZNF268 / Fold change vs veh, ZNF507 / RFU, DGCR2 / Fold change vs veh, DGCR2 / RFU, WDSUB1 / Fold change vs veh, WDSUB1 / Fold change vs veh, HSP90B1 /// MIR3652 / RFU, ADSS / Fold change vs veh, ADSS / RFU, GK / Fold change vs veh, GK / RFU, ZNF148 / Fold change vs veh, ZNF148 / RFU, TAF9 / Fold change vs veh, TAF9 / RFU, SLC1A5 / Fold change vs veh, SLC1A5 / RFU, SLMO2 / Fold change vs veh, SLMO2 / RFU, ABCC4 / Fold change vs veh, ABCC4 / RFU, LOC101060439 /// RAP1B / Fold change vs veh, LOC101060439 /// RAP1B / RFU, RFX7 / Fold change vs veh, RFX7 / RFU, GTPBP10 / Fold change vs veh, GTPBP10 / RFU, CNEP1R1 / Fold change vs veh, CNEP1R1 / RFU, BIVM-ERCC5 /// ERCC5 / Fold change vs veh, BIVM-ERCC5 /// ERCC5 / RFU, ILF3 / Fold change vs veh, ILF3 / RFU 11762660_at / Fold change /veh 11762660_at / RFU VCAN (11757783_s_at) / Fold change /veh VCAN (11757783_s_at) / RFU DDX43 (11728927_at) / Fold change /veh DDX43 (11728927_at) / RFU KRT8 (11758188_x_at) / Fold change /veh KRT8 (11758188_x_at) / RFU NKD1 (11759106_at) / Fold change /veh NKD1 (11759106_at) / RFU SRD5A1 (11742802_a_at) / Fold change /veh SRD5A1 (11742802_a_at) / RFU TPSAB1 /// TPSB2 (11721975_s_at) / Fold change /veh TPSAB1 /// TPSB2 (11721975_s_at) / RFU GSTM3 (11746129_a_at) / Fold change /veh GSTM3 (11746129_a_at) / RFU IL23R (11737362_x_at) / Fold change /veh IL23R (11737362_x_at) / RFU TMEM51 (11727254_a_at) / Fold change /veh TMEM51 (11727254_a_at) / RFU PIWIL2 (11732686_x_at) / Fold change /veh PIWIL2 (11732686_x_at) / RFU ORM1 (11744905_x_at) / Fold change /veh ORM1 (11744905_x_at) / RFU CCDC152 (11743942_at) / Fold change /veh CCDC152 (11743942_at) / RFU ECM1 (11717891_a_at) / Fold change /veh ECM1 (11717891_a_at) / RFU IL23R (11748794_a_at) / Fold change /veh IL23R (11748794_a_at) / RFU TNFAIP8L3 (11732012_x_at) / Fold change /veh TNFAIP8L3 (11732012_x_at) / RFU MBOAT4 (11741988_at) / Fold change /veh MBOAT4 (11741988_at) / RFU 11764193_at / Fold change /veh 11764193_at / RFU TMEM53 (11763286_at) / Fold change /veh TMEM53 (11763286_at) / RFU MAGEB2 (11727129_at) / Fold change /veh MAGEB2 (11727129_at) / RFU TMEM200A (11744735_a_at) / Fold change /veh TMEM200A (11744735_a_at) / RFU CCDC152 (11751479_a_at) / Fold change /veh CCDC152 (11751479_a_at) / RFU FAM211A (11726209_a_at) / Fold change /veh FAM211A (11726209_a_at) / RFU RGS16 (11746705_a_at) / Fold change /veh RGS16 (11746705_a_at) / RFU VCAN (11755009_s_at) / Fold change /veh VCAN (11755009_s_at) / RFU RHOB (11743442_s_at) / Fold change /veh RHOB (11743442_s_at) / RFU RGS16 (11720943_a_at) / Fold change /veh RGS16 (11720943_a_at) / RFU RGS16 (11720944_at) / Fold change /veh RGS16 (11720944_at) / RFU, VPS4B / Fold change vs veh, VPS4B / RFU, CREB1 / Fold change vs veh, CREB1 / RFU, DNAJC13 / Fold change vs veh, DNAJC13 / RFU, GNAQ / Fold change vs veh, GNAQ / RFU, CDK5R1 / Fold change vs veh, CDK5R1 / RFU, ZRANB3 / Fold change vs veh, ZRANB3 / RFU, CUL4A / Fold change vs veh, CUL4A / RFU, CCNY / Fold change vs veh, CCNY / RFU, UFL1 / Fold change vs veh, UFL1 / RFU, COG3 / Fold change vs veh, COG3 / RFU, DIAPH2 / Fold change vs veh, DIAPH2 / RFU, SKA2 / Fold change vs veh, SKA2 / RFU, AFF3 / Fold change vs veh, AFF3 / RFU, LMF1 / Fold change vs veh, LMF1 / RFU, IPO11 / Fold change vs veh, IPO11 / RFU, DFFB / Fold change vs veh, DFFB / RFU, FOXP1 / Fold change vs veh, FOXP1 / RFU, CARD8 / Fold change vs veh, CARD8 / RFU, STRN3 / Fold change vs veh, STRN3 / RFU, ADK / Fold change vs veh, ADK / RFU, RASSF2 / Fold change vs veh, RASSF2 / RFU, WIPF1 / Fold change vs veh, WIPF1 / RFU, LARP1B / Fold change vs veh, LARP1B / RFU, RASA1 / Fold change vs veh, RASA1 / RFU, RB1 / Fold change vs veh, RB1 / RFU, PPFIA1 / Fold change vs veh, PPFIA1 / RFU, MAT2A / Fold change vs veh, MAT2A / RFU, CCT5 / Fold change vs veh, CCT5 / RFU, WDR92 / Fold change vs veh, WDR92 / RFU, CUX1 / Fold change vs veh, CUX1 / RFU, TTC7A / Fold change vs veh, TTC7A / RFU, TMEM135 / Fold change vs veh, TMEM135 / RFU, DEPTOR / Fold change vs veh, DEPTOR / RFU, CPM / Fold change vs veh, CPM / RFU, DNAJB6 / Fold change vs veh, DNAJB6 / RFU, CACNA2D3 / Fold change vs veh, CACNA2D3 / RFU, DTX4 / Fold change vs veh, DTX4 / RFU, TFCP2 / Fold change vs veh, TFCP2 / RFU, GMCL1 /// GMCL1P1 / Fold change vs veh, GMCL1 /// GMCL1P1 / RFU, AEBP2 / Fold change vs veh, AEBP2 / RFU, SNHG1 /// SNORD22 /// SNORD25 /// SNORD26 /// SNORD27 /// SNORD28 /// SNORD29 /// SNORD31 / Fold change vs veh, SNHG1 /// SNORD22 /// SNORD25 /// SNORD26 /// SNORD27 /// SNORD28 /// SNORD29 /// SNORD31 / Fold change (Aza/veh), C12orf56 (ProbeSet 11735607_a_at) / Fold change (ACY-1035/veh), C12orf56 (ProbeSet 11735607_a_at) / Fold change (Aza/veh), FGFR1OP (ProbeSet 11751329_s_at) / Fold change (ACY-1035/veh), FGFR1OP (ProbeSet 11751329_s_at) / Fold change (Aza/veh), VPS36 (ProbeSet 11739960_a_at) / Fold change (ACY-1035/veh), VPS36 (ProbeSet 11739960_a_at) / RFU SYPL1 (11715823_x_at) / Fold change /veh SYPL1 (11715823_x_at) / RFU IGFBP7 (11715501_s_at) / Fold change /veh IGFBP7 (11715501_s_at) / RFU REEP3 (11722064_at) / Fold change /veh REEP3 (11722064_at) / RFU IGLL1 (11728026_x_at) / Fold change /veh IGLL1 (11728026_x_at): dose or concentration left out as unconfirmed
Conditions: ProbeSet 11729384_s_at; LIST D

Nc1ccc(-c2cccs2)cc1NC(=O)c1ccc2c(c1)cc(C1CC1)n2CCN1CCOCC1 [ACY-1035]
RFU, CCNY: 178.51 RFU
